# Assay results reported in ChEMBL document CHEMBL1146582, “Phenolic constituents from Dalbergia cochinchinensis” (J Nat Prod, 2003).
# Legend:
# [1] = Inhibition of testerone 5-alpha-reductase at 25 ug/mL
# [2] = Inhibition of testerone 5-alpha-reductase at 50 ug/mL
# [3] = Inhibition of testerone 5-alpha-reductase at 100 ug/mL
inhibition [1] [%],inhibition [2] [%],inhibition [3] [%],Structure (SMILES)
42.8,52,65.6,COC1=CC(=O)c2cc(-c3ccccc3)c3cc(O)c(OC)cc3c2C1=O
0.6,3.8,17,COC1=CC(=O)C(Cc2oc3cc(OC)c(O)cc3c2-c2ccccc2)=CC1(C/C=C/c1ccccc1)OC (stereo not drawn)
31.7,64.7,87.1,CC1(C)[C@@H](O)CC[C@]2(C)[C@H]3C(=O)C=C4[C@@H]5C[C@@](C)(C(=O)O)CC[C@]5(C)CC[C@@]4(C)[C@]3(C)CC[C@@H]12
8.2,18.9,51.8,C=CC(c1ccccc1)c1cc(O)c(OC)cc1OC (stereo not drawn)
19.5,20.7,22.8,COc1cc(O)ccc1C(=O)/C=C/c1ccccc1
11.5,15.9,18.1,COc1cc2oc(Cc3cc(OC)c(OC)cc3OC/C=C/c3ccccc3)c(-c3ccccc3)c2cc1O
